Experimental data taken from US8216782B2, “PTTG1 as a biomarker for cancer treatment” (Cedars-Sinai Medical Center, priority 2008, dated 2012).
Entries after “also recorded” stand apart in the source; their conditions may differ.

Key:
HCT116 PTTG1−/− cells [1] = test: β-galactosidase staining (senescence); type: cell-based; settings: 0.313 uM, 48 hrs
Text: (§1) Cells were fixed and stained with β-galactosidase staining kit (Sigma).

HCT116 WT cells [2] = test: β-galactosidase staining (senescence); type: cell-based; settings: 0.313 uM, 48 hrs
Text: as §1

HCT116 cells = test: Apoptosis by Tunel assay and activated caspase 3 levels; type: cell-based
p21 = p21 expression after treatment; type: cell-based; settings: WT and PTTG1−/− cells
Text: FIG. 10 depicts P21 level is higher in PTTG1^−/− cells than WT. P21 induces senescence.

WT HCT116 tumors = test: Subcutaneous tumor implant in nude mice; type: in vivo; settings: 50 mg/kg, 17 days
Description: Tumor volume was measured twice a week.

PTTG1−/− HCT116 tumors = test: Subcutaneous tumor implant in nude mice; settings: 50 mg/kg, 17 days
Description: Tumor volume was measured twice a week. Mice were sacrificed at day 18 and tumors were collected and weighted.

HCT116 PTTG1−/− cells [3] = test: WST-1 cell proliferation assay; type: cell-based
Description: (§2) FIG. 4 depicts that PTTG1 regulates cell response to Aurora Kinase inhibition, in accordance with an embodiment of the present invention. (A) PTTG1^−/− cell proliferation was attenuated in response to Aurora Kinase A siRNA (mean±S.D., n=3. P<0.05 vs WT). Cells were seeded into 96-well plates, cultured overnight, and then transfected with siRNAs (100 nM). After 72 hours, premixed WST-1 cell proliferation reagent (10 ul) was added to each well. Cells were incubated for a further four hours and shaken thoroughly for one minute before measurement. […] Cells were seeded into 96-well plates, cultured overnight, and then treated with drug as indicated for 48 hours. Viable cells were measured using Premixed WST-1 cell proliferation reagent. (C) Anchorage-dependent colony formation assay was performed as described herein. […] (mean±S.D., n=3. P<0.05 vs WT) (D) Western blot showing that over-expressed PTTG1 rescued PTTG1^−/− sensitivity to Aurora Kinase inhibitor III (12.5 uM) (mean±S.D., n=3. P>0.05 vs WT); PTTG1 knock-down enhanced WT cell sensitivity to Aurora Kinase inhibitor III (12.5 uM) (mean±S.D., n=3. P>0.05 vs PTTG1^−/−). PTTG1^−/−=PTTG1-null or KO cells.
(§3) Cell proliferation was evaluated using WST-1 cell proliferation reagent (obtained from Clontech Laboratories, Inc.; Mountain View, Calif.). Briefly, 90 μl cells were seeded into 96-well plates and cultured overnight, treated with drugs for 48 hours, and 10 μl premixed WST-1 cell proliferation reagent added. Cells were incubated for a further four hours, shaken and absorbance measured at 450 nm using a Victor 3 multiwell plate reader (obtained from PerkinElmer, Inc.; Waltham, Mass.). Cell viability rate was calculated for each well as A450 treated cells/A450 control cells×100% (A450: OD value at 450 nm).

HCT116 WT cells [4] = test: WST-1 cell proliferation assay; type: cell-based; settings: Homo sapiens, HCT-116, 48 h, read-out: cells remaining viable
Description: as §2, §3

HCT116 PTTG1−/− cells [5] = test: Anchorage-dependent colony formation assay; type: cell-based; settings: PTTG1−/− colonies, 0.16 μM doxorubicin
Description: (§4) Briefly, 20,000 cells were plated in a six-well culture dish, allowed to attach overnight and treated with depicted drug concentrations. Cells were cultured in standard culture medium containing indicated treatments for twelve days and medium re-freshened every three days. Colonies were stained with 0.5% crystal violet in methanol/acetic acid (3:1) and those composed of >50 cells were counted.

HCT116 WT cells [6] = test: Anchorage-dependent colony formation assay; type: cell-based; settings: 0.16 μM doxorubicin
Description: as §4

Aurora Kinase A = test: Kinase activity of Aurora Kinase A immunoprecipitated from treated HCT116 cells; type: cell-based; settings: PTTG1−/− vs WT HCT116 cells
Text: (§5) FIG. 6 depicts PTTG1 and DNA damage pathway, in accordance with an embodiment of the present invention. […] (B) Aurora Kinase A activity was less inhibited after DNA damage treatment in PTTG1^−/− cells. Lane C1, positive control with Aurora Kinase A; lane C2, negative control without Aurora Kinase A; lane WT, Aurora Kinase A co-immunoprecipitated from HCT116 WT cells after doxorubicin treatment; Lane −/−, Aurora Kinase A immunoprecipitated from HCT116 PTTG1^−/− cells after doxorubicin treatment. Aurora Kinase A activity is higher in PTTG1^−/− than WT HCT116 cells. (C) C, PTTG1 WT plasmid; M3, PTTG1 S165A mutation; M9, PTTG1 S181A mutation. Plasmids were transfected into HCT116 PTTG1^−/− cells and treated with proteosome inhibitor LLnL to enrich phosphorylated PTTG1. Arrow depicts the major band. […] (D) WT, PTTG1 WT plasmid; M9, PTTG1 S181A mutation were transfected into HCT116 PTTG1^−/− and co-immunoprecipitation performed. […] (E) Proposed signaling pathway for PTTG1 action in G2 DNA damage checkpoint.
Aurora Kinase A activity is inhibited by DNA damage (Krystyniak et al., 2006). The inventors therefore tested Aurora Kinase A activity in HCT116 WT and PTTG1^−/− cells after treatment with doxorubicin. […] Phosphorylated PTTG1 may therefore act with Aurora Kinase A and play a role in the DNA damage-induced G2 checkpoint. […]

PTTG1 = test: Western blot of PTTG1 phosphorylation after DNA damage; type: cell-based; settings: 24 hours, 5 μM doxorubicin
Text: as §5

`O=C(CCCCCCC(=O)Nc1ccccc1)NO` [SAHA, suberoylanilide hydroxamic acid] was tested, and the “senescent cells (β-galactosidase staining)” value (HCT116 PTTG1−/− cells [1]) was 43%, the “senescent cells (β-galactosidase staining)” value (HCT116 WT cells [2]) was 7% and the apoptosis (HCT116 cells) was “did not cause apoptosis”. For the same molecule, the p21 expression (p21) was “enhanced p21 expression”, the tumor growth (WT HCT116 tumors) was “did not show any difference between control and treated group; also recorded: had no effect” and the tumor growth (PTTG1−/− HCT116 tumors) was “significantly inhibited”.
With `COc1cccc2c1C(=O)c1c(O)c3c(c(O)c1C2=O)C[C@@](O)(C(=O)CO)C[C@@H]3O[C@H]1C[C@H](N)[C@H](O)[C@H](C)O1` [doxorubicin] the viability at 1.25 µM (HCT116 PTTG1−/− cells [3]; Homo sapiens, HCT-116, 48 h, read-out: cells remaining viable) was 27%, the “sensitivity of PTTG1−/− cell growth versus WT (WST-1)” value (HCT116 PTTG1−/− cells [3]; PTTG1−/− vs WT HCT116 cells) was “more sensitive” and the viability at 1.25 µM (HCT116 WT cells [4]) was 55%. For the same molecule, the colonies survived (HCT116 PTTG1−/− cells [5]) was 36%, the colonies survived (HCT116 WT cells [6]) was 74% and the “Aurora Kinase A activity after doxorubicin treatment” value (Aurora Kinase A) was “less suppressed in PTTG1^−/− than WT cells”. For the same molecule, the “phosphorylated PTTG1” value (PTTG1) was “Increased phosphorylated PTTG1”.
